This note sets out measurements from ChEMBL document CHEMBL1140510, “New 1,2,3,4-tetrahydropyrrolo[3,4-b]indole derivatives as selective CB2 receptor agonists” (Bioorg Med Chem Lett, 2007).

As a reminder, the Ki is a dissociation constant, usually derived from enzyme kinetics or from competition with a known ligand. As usually defined, the EC50 is the concentration at which the effect is half-maximal. By Emax is commonly meant the size of the effect at its maximum, as opposed to the concentration needed.

Assay [1] concerns the target Cannabinoid receptor 1 (Homo sapiens, UniProt P21554). Description: Binding affinity to human CB1 receptor.
Assay [2] concerns the target T1, Cannabinoid receptor 2 (Homo sapiens, UniProt P34972). Description: Binding affinity to human CB2 receptor.
The species entered for assay [3] is Homo sapiens. Description: Selectivity for human CB2 receptor over human CB1 receptor.
In assay [4] the target is T1, Cannabinoid receptor 2. Description: Agonist activity at human CB2 receptor by GTPgamma[35S] assay. Format: functional.
Assay [5] concerns the target T1, Cannabinoid receptor 2. Description: Agonist activity at human CB2 receptor by GTPgamma[35S] assay relative to WIN-55212-2. Format: functional.

T1 sequence (P34972 whole entry): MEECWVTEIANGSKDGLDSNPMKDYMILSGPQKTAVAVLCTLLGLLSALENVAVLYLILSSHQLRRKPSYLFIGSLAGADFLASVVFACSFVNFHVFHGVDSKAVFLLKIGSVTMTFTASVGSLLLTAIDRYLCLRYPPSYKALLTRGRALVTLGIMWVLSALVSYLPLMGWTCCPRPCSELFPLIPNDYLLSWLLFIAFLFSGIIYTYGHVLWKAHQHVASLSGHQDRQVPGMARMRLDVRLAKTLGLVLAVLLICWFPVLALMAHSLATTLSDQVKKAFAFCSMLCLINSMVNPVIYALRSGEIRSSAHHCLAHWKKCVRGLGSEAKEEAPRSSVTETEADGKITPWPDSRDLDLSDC
Cannabinoid receptor 1, sequence (P21554 whole entry): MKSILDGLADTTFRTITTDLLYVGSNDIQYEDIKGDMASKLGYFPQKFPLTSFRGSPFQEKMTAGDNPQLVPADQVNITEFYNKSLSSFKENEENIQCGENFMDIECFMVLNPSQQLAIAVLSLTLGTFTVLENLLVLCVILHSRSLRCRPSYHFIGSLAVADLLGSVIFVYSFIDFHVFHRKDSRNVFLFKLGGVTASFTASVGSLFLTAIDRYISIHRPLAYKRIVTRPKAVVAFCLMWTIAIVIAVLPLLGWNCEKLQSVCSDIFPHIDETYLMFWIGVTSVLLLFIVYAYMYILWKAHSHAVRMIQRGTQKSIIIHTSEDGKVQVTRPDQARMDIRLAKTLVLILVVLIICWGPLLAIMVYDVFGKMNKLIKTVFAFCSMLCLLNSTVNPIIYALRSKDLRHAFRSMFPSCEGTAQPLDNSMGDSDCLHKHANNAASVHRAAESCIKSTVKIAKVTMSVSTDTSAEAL

Turning to `CC1CCN(C(=O)c2ccc3c(c2)c2c(n3S(=O)(=O)c3ccccc3)CN(C3CCCC3)C2)CC1`, the values for the inhibitory constant (Ki) in assay [1] and in assay [2] were 259 nM and 17.9 nM, respectively. In addition, in assay [3], the Ratio Ki turned out to be 14.5. The same compound showed an EC50 in assay [4] of 15.6 nM. Also, in assay [5], the Emax was -62%.
The matching figures for `C=CCn1c2c(c3cc(C(=O)N4CCC(C)CC4)ccc31)CN(C1CCCC1)C2`: 695 nM, 23.3 nM, 29.8, 5 nM and 92%.
With `CCCCCc1cc(O)c2c(c1)CC(C)(C)[C@@H]1CCC(C)=C[C@@H]21`, the Ki in assay [1] came out at 20.1 nM; in assay [2] it was 140 nM. Further, in assay [3], the Ratio Ki stood at 0.14. This compound also displayed an EC50 in assay [4] of 13.5 nM. Further, in assay [5], the Emax came out at 64%.
Take `CC1CCN(C(=O)c2ccc3c(c2)c2c(n3S(=O)(=O)C(C)C)CN(C3CCCC3)C2)CC1`: the inhibition constant Ki turned out to be 150 nM in assay [1] and 4.2 nM in assay [2]. The Ratio Ki in assay [3] amounted to 35.7. In assay [4], this compound yielded a 50% effective concentration (EC50) of 0.5 nM. Also, the Emax in assay [5] stood at 105%.
On to `C=CCN1Cc2c(n(S(=O)(=O)CC)c3ccc(C(=O)N4CCC(C)CC4)cc23)C1`, for which the results for the inhibitory constant (Ki) in assay [1] and in assay [2] were 263 nM and 6.4 nM, respectively. For the same compound, the Ratio Ki in assay [3] was 41.1. The compound also yielded an EC50 in assay [4] of 0.3 nM. In addition, the Emax in assay [5] worked out at 104%.
On the same counts, the results for `CCCCN1Cc2c(n(S(=O)(=O)CC)c3ccc(C(=O)N4CCC(C)CC4)cc23)C1` are 341 nM, 16.8 nM, 20.3, 2.7 nM and 105%.
Regarding `CCS(=O)(=O)n1c2c(c3cc(C(=O)N4CCC(F)CC4)ccc31)CN(C1CCCC1)C2`, the Ki in assay [1] turned out to be 2910 nM; in assay [2] it was 44.2 nM. The Ratio Ki in assay [3] is 65.9.
Turning to `CC1CCN(C(=O)c2ccc3c(c2)c2c(n3S(=O)(=O)C3CC3)CN(C3CCCC3)C2)CC1`, the Ki amounted to 137 nM in assay [1] and 9.4 nM in assay [2]. For the same compound, the Ratio Ki in assay [3] was determined as 14.6. The response in assay [4] was half-maximal at 1.5 nM (EC50). Besides, the Emax in assay [5] came out at 101%.
With `CCS(=O)(=O)n1c2c(c3cc(C(=O)N(C)C(C)C)ccc31)CN(C1CCCC1)C2`, the values for the Ki in assay [1] and in assay [2] were 7220 nM and 107 nM, respectively. For the same compound, in assay [3], the Ratio Ki was 67.5.
Turning to `CCCS(=O)(=O)n1c2c(c3cc(C(=O)N4CCC(C)CC4)ccc31)CN(C1CCCC1)C2`, the inhibition constant Ki in assay [1] came out at 195 nM; in assay [2], 22.3 nM. In addition, in assay [3], the Ratio Ki came to 8.7. The compound also showed a half-maximal effective concentration (EC50) in assay [4] of 6.7 nM. Also, in assay [5], the Emax worked out at 90%.
On to `CC1CCN(C(=O)c2ccc3[nH]c4c(c3c2)CN(C2CCCC2)C4)CC1`, for which the Ki in assay [1] was over 8000 nM; in assay [2] it was 4720 nM.
Take `CCS(=O)(=O)n1c2c(c3cc(C(=O)N4CCC(C)CC4)ccc31)CN(C1CCCCO1)C2` (stereo not drawn): the Ki in assay [1] amounted to 6180 nM; in assay [2], 17.6 nM. Also, the Ratio Ki in assay [3] is 351. Also, the EC50 in assay [4] amounted to 1.7 nM. The Emax in assay [5] came to 107%.
`CCS(=O)(=O)n1c2c(c3cc(C(=O)N4CCC(C)CC4)ccc31)CN(CC1CC1)C2` displayed an inhibitory constant (Ki) in assay [2] of 6.3 nM. This compound yielded a concentration for a half-maximal effect (EC50) in assay [4] of 0.5 nM.
Regarding `CCS(=O)(=O)n1c2c(c3cc(C(=O)N4CCC(C)CC4)ccc31)CN(CC1CCCCC1)C2`, the results for the Ki in assay [1] and in assay [2] were 339 nM and 935 nM, respectively. The Ratio Ki in assay [3] was 0.4.
Regarding `CC1CCN(C(=O)c2ccc3c(c2)c2c(n3C)CN(C3CCCC3)C2)CC1`, the Ki worked out at 1810 nM in assay [1] and 84.7 nM in assay [2]. In assay [3], the Ratio Ki was found to be 21.4.
For `CC1CCN(C(=O)c2ccc3c(c2)c2c(n3S(C)(=O)=O)CN(C3CCCC3)C2)CC1`, the inhibition constant (Ki) was 279 nM in assay [1] and 7.9 nM in assay [2]. Moreover, the Ratio Ki in assay [3] was found to be 35.3. In addition, the midpoint of the response in assay [4], the EC50, lay at 0.6 nM. In assay [5], the Emax is 105%.
`CCS(=O)(=O)n1c2c(c3cc(C(=O)N(C)CCC(C)C)ccc31)CN(C1CCCC1)C2`: the Ki was determined as 1470 nM in assay [1] and 38.1 nM in assay [2]. In addition, in assay [3], the Ratio Ki turned out to be 38.7.
As for `CC1CCN(C(=O)c2ccc3c(c2)c2c(n3Cc3ccccc3)CN(C3CCCC3)C2)CC1`, the Ki in assay [1] was 658 nM; in assay [2], 106 nM. Further, in assay [3], the Ratio Ki was 6.2.
As to `CCS(=O)(=O)n1c2c(c3cc(C(=O)N4CCC(C)CC4)ccc31)CN(CCC1CCCCC1)C2`, the results for the inhibition constant Ki in assay [1] and in assay [2] were 2740 nM and 1980 nM, respectively. In addition, the Ratio Ki in assay [3] was determined as 1.4.
Regarding `CC(=O)n1c2c(c3cc(C(=O)N4CCC(C)CC4)ccc31)CN(C1CCCC1)C2`, the Ki in assay [1] came to 2330 nM; in assay [2], 88.1 nM. Further, the Ratio Ki in assay [3] turned out to be 26.5.
As for `CCS(=O)(=O)n1c2c(c3cc(C(=O)N4CCC(C)CC4)ccc31)CN(C1CCOC1)C2` (stereo not drawn), the inhibition constant (Ki) came out at 973 nM in assay [1] and 27.8 nM in assay [2]. For the same compound, the Ratio Ki in assay [3] worked out at 35.
The matching figures for `CCS(=O)(=O)n1c2c(c3cc(C(=O)N4CCOCC4)ccc31)CN(C1CCCC1)C2`: over 8000 nM, 308 nM and over 25.
On to `CCCCN(C)C(=O)c1ccc2c(c1)c1c(n2S(=O)(=O)CC)CN(C2CCCC2)C1`, for which the values for the Ki in assay [1] and in assay [2] were 779 nM and 22.3 nM, respectively. The Ratio Ki in assay [3] was 34.9. Moreover, the half-maximal effective concentration (EC50) in assay [4] was 4 nM. Besides, the Emax in assay [5] turned out to be 111%.
The matching figures for `CCS(=O)(=O)n1c2c(c3cc(C(=O)N4CCC(C)CC4)ccc31)CN(C1CCCC1)C2`: 66.3 nM, 7 nM, 9.4, 0.8 nM and 110%.
The matching figures for `CCS(=O)(=O)n1c2c(c3cc(C(=O)N4CCC(C)CC4)ccc31)CN(C(C)C)C2`: 418 nM, 8.9 nM, 47, 0.9 nM and 101%.
On to `CCS(=O)(=O)n1c2c(c3cc(C(=O)N4CCCCC4)ccc31)CN(C1CCCC1)C2`, for which the inhibition constant Ki was 818 nM in assay [1] and 17.5 nM in assay [2]. Moreover, the Ratio Ki in assay [3] came to 46.7. The same compound came in with a half-maximal effective concentration (EC50) in assay [4] of 1.7 nM. For the same compound, the Emax in assay [5] was found to be 107%.
With `CCS(=O)(=O)n1c2c(c3cc(C(=O)N4CCC(OC)CC4)ccc31)CN(C1CCCC1)C2`, the Ki in assay [1] came to 2130 nM; in assay [2] it was 27.6 nM. The Ratio Ki in assay [3] amounted to 77.2.
Consider `CCCN1Cc2c(n(S(=O)(=O)CC)c3ccc(C(=O)N4CCC(C)CC4)cc23)C1`, for which the figures for the Ki in assay [1] and in assay [2] were 604 nM and 11.1 nM, respectively. Also, the Ratio Ki in assay [3] amounted to 54.4. In assay [4], the 50% effective concentration (EC50) is 0.8 nM. Further, in assay [5], the Emax was 104%.
Take `CCS(=O)(=O)n1c2c(c3cc(C(=O)N4CCC(C)CC4)ccc31)CN(Cc1ccccc1)C2`: the Ki in assay [1] turned out to be 1270 nM; in assay [2], 37 nM. The Ratio Ki in assay [3] was found to be 34.4.
On the same counts, the results for `CCS(=O)(=O)n1c2c(c3cc(C(=O)N4CCC(C)CC4)ccc31)CN(C1CCOCC1)C2` are 3020 nM, 216 nM and 14.
